*1 amine or outer side, *2 acyl side, *3 side chain or, on linkers, in order; H or OH if unused. Where a SMILES comes first, the peptide text is derived from it. Bridges are numbered along the chain shown (N, C = ends). Roman numbers before positions name the chains, in order. [ ]: non-standard residue; d: D form. The star is where a group is joined. d(isoGln) = NC(=O)[C@@H](CCC(=O)[*:2])N[*:1]; isoGln = NC(=O)[C@H](CCC(=O)[*:2])N[*:1]; d(εLys) = N[C@H](CCCCN[*:1])C(=O)[*:2]; Aad = N[C@@H](CCCC(=O)O)C(=O)O; Cit = NC(=O)NCCC[C@H](N)C(=O)O; Dab = NCC[C@H](N)C(=O)O; PhAc = O=C(Cc1ccccc1)*
How the values were obtained:
[1] = HRS1 patients; cited from earlier work
human V1aR = target: T1, human V1aR (Homo sapiens, UniProt P37288); assay: FLIPR calcium agonist assay in HEK-flpin cells expressing the vasopressin V1a receptor; format: cell-based
T1 construct: expressed in transfected cells
Protocol: Efficacy (% MPE) is also determined as the percentage of maximal possible effect. This agonist assay utilizes cells from a stable cell line (HEK-flpin) expressing the vasopressin V1a receptor. Intracellular calcium increase in response to agonist is measured through real-time fluorescence of an intracellular calcium-sensitive dye. Cells are exposed to varying concentrations of test agonist compounds whereupon release of intracellular calcium is measured to determine the agonist potency and efficacy.
The cell line stably expresses the lacZ-Zeocin™ fusion gene and is designed for use with the Flp-In™ expression vector containing the gene of interest and the Flp recombinase expression plasmid, pOG44. The cell line contains a single integrated Flp Recombination Target (FRT) site from pFRT/lacZeo or pFRT/lacZeo2. To generate the HEK-flpin cell line stably expressing the human V1aR, the cells were co-transfected with the Flp-In™ expression vector containing the gene of interest (pcDNA5/FRT-hV1aR) and the Flp recombinase expression plasmid pOG44. Flp recombinase mediates insertion of the Flp-In™ expression vector into the genome at the integrated FRT site through site-specific DNA recombination. Stable cell lines expressing the hV1aR from the Flp-In™ expression vector can be generated by selection using hygromycin B. See Life Technologies/Invitrogen manual, Growth and Maintenance of Flp-In™ Cell Lines, Version E, published Feb.
Efficacy of this compound was set to be 100%. A stock solution of 5 mM was made up in DMSO and stored at −20° C.
HEK-flpin-hV1aR, cmcqV1aR, dV1aR and pV1aR cells were maintained in DMEM containing 10% (v/v) FBS-HI, 4 mM GlutaMAX™-I, 25 μg/mL Hygromycin B at 37° C. under 5% CO2 in a humidified atmosphere. […]
The cell plates were transferred to FLIPR Tetra, along with a 384 well V-bottom plate pre-loaded with half-log concentrations of test compounds at 10× final test concentrations. […] The agonist-induced fluorescence signal was then measured for 180 s with initial 120 readings at 1-second intervals followed by 20 readings at 3-second intervals. […]

T1 sequence (P37288 whole entry): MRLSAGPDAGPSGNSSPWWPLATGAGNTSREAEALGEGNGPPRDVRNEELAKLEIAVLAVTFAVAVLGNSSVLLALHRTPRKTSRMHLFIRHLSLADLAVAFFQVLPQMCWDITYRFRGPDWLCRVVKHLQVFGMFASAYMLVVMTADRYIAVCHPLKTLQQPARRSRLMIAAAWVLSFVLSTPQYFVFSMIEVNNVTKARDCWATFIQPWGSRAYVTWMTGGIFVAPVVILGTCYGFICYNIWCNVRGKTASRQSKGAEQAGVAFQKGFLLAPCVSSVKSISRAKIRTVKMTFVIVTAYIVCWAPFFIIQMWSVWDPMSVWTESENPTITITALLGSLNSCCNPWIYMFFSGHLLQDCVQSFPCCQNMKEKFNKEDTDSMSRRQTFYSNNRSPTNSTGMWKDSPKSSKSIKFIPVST

Structure (SMILES)	EC50 (human V1aR)	also measured
NCCCC[C@H](NC(=O)[C@@H]1CCCN1C(=O)[C@@H]1CSSC[C@H](NC(=O)CNC(=O)CNC(=O)CN)C(=O)N[C@@H](Cc2ccc(O)cc2)C(=O)N[C@@H](Cc2ccccc2)C(=O)N[C@@H](CCC(N)=O)C(=O)N[C@@H](CC(N)=O)C(=O)N1)C(=O)NCC(N)=O [Terlipressin, terlipressin] (H-GGGCYFQNCPKG-NH2; disulfide 4-9)	–	patients in whom renal failure is reversed [1]: 30-40%
CC[C@H](C)[C@@H]1NC(=O)[C@H](Cc2ccccc2)NC(=O)[C@@H](N)CSSC[C@@H](C(=O)N2CCC[C@H]2C(=O)N[C@@H](CCNC(=O)[C@H](N)CCCCNC(=O)CC[C@H](NC(=O)[C@H](CCCNC(=N)N)NC(=O)[C@@H]2CCCN2C(=O)[C@H](CCN)NC(=O)[C@H](CC(N)=O)NC(=O)[C@H](CCC(N)=O)NC(=O)[C@H](Cc2ccccc2)NC(=O)[C@@H](Cc2ccc(OC)cc2)NC(=O)Cc2ccccc2)C(N)=O)C(=O)NCC(N)=O)NC(=O)[C@H](CC(N)=O)NC(=O)[C@H](CC(N)=O)NC1=O [Compound 59] (I: H-CFINNCP[Dab]G-NH2 / II: PhAc-[dY](Me)FQN[Dab]PR[isoGln][d(εLys)]; disulfide I:1-I:6; amide I:8-II:C)	1.7 nM	–
CC[C@H](C)[C@@H]1NC(=O)[C@H](Cc2ccccc2)NC(=O)[C@@H](N)CSSC[C@@H](C(=O)N2CCC[C@H]2C(=O)N[C@@H](CCNC(=O)[C@H](N)CCCCNC(=O)CC[C@H](NC(=O)[C@H](CCCNC(=N)N)NC(=O)[C@@H]2CCCN2C(=O)[C@H](C)NC(=O)[C@H](CC(N)=O)NC(=O)[C@H](CCC(N)=O)NC(=O)[C@H](Cc2ccccc2)NC(=O)[C@@H](Cc2ccc(OC)cc2)NC(=O)Cc2ccccc2)C(N)=O)C(=O)NCC(N)=O)NC(=O)[C@H](CC(N)=O)NC(=O)[C@H](CCCC(N)=O)NC1=O [Compound 62] (I: H-CFI[Aad](NH2)NCP[Dab]G-NH2 / II: PhAc-[dY](Me)FQNAPR[isoGln][d(εLys)]; disulfide I:1-I:6; amide I:8-II:C)	–	Efficacy Avg. (% MPE, as compared to AVP) (human V1aR; HEK-flpin-hV1aR cells, AVP efficacy set to 100%): 31%
CC[C@H](C)[C@@H]1NC(=O)[C@H](Cc2ccccc2)NC(=O)[C@@H](N)CSSC[C@@H](C(=O)N2CCC[C@H]2C(=O)N[C@@H](CCNC(=O)[C@H](N)CCCCNC(=O)CC[C@@H](NC(=O)[C@H](CCCNC(=N)N)NC(=O)[C@@H]2CCCN2C(=O)[C@H](CCCNC(N)=O)NC(=O)[C@H](CC(N)=O)NC(=O)[C@H](CCC(N)=O)NC(=O)[C@H](Cc2ccccc2)NC(=O)[C@@H](Cc2ccc(OC)cc2)NC(=O)Cc2ccccc2)C(N)=O)C(=O)NCC(N)=O)NC(=O)[C@H](CC(N)=O)NC(=O)[C@H](CCC(N)=O)NC1=O [Compound 55] (I: H-CFIQNCP[Dab]G-NH2 / II: PhAc-[dY](Me)FQN[Cit]PR[d(isoGln)][d(εLys)]; disulfide I:1-I:6; amide I:8-II:C)	1.7 nM	–

From patent US9644000B2, “V1a receptor agonists” (Ferring B.V., priority 2012, dated 2017)
